US8586768B2, “Design, synthesis and functional characterization of rottlerin analogs” (priority 2009, dated 2013)

Experiments:
PKCδ = PKCδ (Homo sapiens, UniProt Q05655); assay: In vitro 32P phosphorylation kinase assay with histone substrate; format: biochemical; conditions: 0.3-10 μM, pure recombinant PKCδ protein
Procedure: Since PK analogs are directed against PKCδ, it was first determined whether the analogs would inhibit PKCδ enzyme activity in kinase assays. The ability of lead PK analogs to inhibit purified human recombinant PKCδ enzyme activity by 32P phosphorylation kinase assay with histone as the substrate was measured. The in vitro kinase assays were performed with human recombinant PKCδ in the presence or absence of 0.3-10 μM lead PK analogs in the presence histone substrate, [^32P]-ATP and phospholipids. The extent of histone phosphorylation was determined after separation in SDS-PAGE and by phosphoimaging. IC50 was obtained using sigmoidal dose-response curve and non-linear regressional analysis using Graphpad Prism software.
In vitro kinase assays were performed with human recombinant PKCδ in the presence or absence of 0.3-10 μM lead PK analogs in the presence histone substrate, [^32P]-ATP and phospholipids. The extent of histone phosphorylation was determined after separation in SDS-PAGE and by phosphoimaging.

[1] = test system: caspase-3 activity in N27 cells; assay: MPP+-induced caspase-3 activity assay in N27 cells; format: cell-based, rat; conditions: for inhibition of MPP+-induced caspase-3 activity: MPP+ 24 hr, dose range 1-30 μM; for blockage of MPP+-induced caspase-3 activity: co-treated with 0.3, 1, 3 and 10 μM
Procedure: To determine whether PK analogs are neuroprotective against MPP+-induced increases in caspase-3 and DNA fragmentation, their effects on MPP+-induced increases in caspase-3 activity and DNA fragmentation, markers of apoptotic cell death, were examined.
The second generation PK analogs were further tested to determine whether the analogs are neuroprotective against MPP+-induced apoptotic cell death. The effects on MPP+-induced increases in caspase-3 enzymatic activity were analyzed, a marker of apoptotic cell death. […] At the end of the treatment, cytotoxicity was measured using the caspase-3 assay in a 96-well fluorescence microplate reader.
The third generation PK analogs were further tested to determine whether the analogs are neuroprotective against MPP+-induced apoptotic cell death. The effects on MPP+-induced increases in caspase-3 enzymatic activity were examined, a marker of apoptotic cell death. N27 cells were exposed to 300 μM MPP+ for 24 hr in the presence or absence of three different PK compounds in the dose range of 0.3-10 μM. At the end of the treatment, cytotoxicity was measured using the caspase-3 assay in a 96-well fluorescence microplate reader.
(§1) Rat mesencephalic dopaminergic clonal cells (N27) were used and maintained in RPMI 1640 complete medium supplemented with 10% Fetal Bovine Serum, 1% […] and 1% Penicillin/Streptomycin in a 37° C. incubator with 5% CO2. After 4-6 days in culture, the cells were used for the experiments.
(§2) N27 cells were exposed to MPP^+ for 24 hr in the presence or absence of PK analogs in the dose range of 1-30 μM.

N27 cells = conditions: for toxicity of the analog at higher doses: 30 μM; for neuroprotection compared with rottlerin: caspase-3 activity and cytotoxic cell death; for blockage of MPP+-induced cytotoxicity: co-treated with 0.3, 1 and 3 μM
Procedure: (§3) At the end of the treatment, cytotoxicity was measured using the Sytox cell death assay in a 96-well fluorescence microplate reader.
A second generation of rottlerin analogs was further utilized for neuroprotection studies, as shown as PK201-203 in FIG. 2.
as §3
The analogs were tested in an N27 dopaminergic cell model for their neuroprotective properties. […] At the end of the treatment, cytotoxicity was measured using the Sytox cell death assay in a 96-well fluorescence microplate reader.
as §1, §2

[2] = Activity of simple rottlerin analogs compared with rottlerin (test not named)
Procedure: Design and Synthesis of Novel Rottlerin Analogs. Since Rottlerin has proven to be a difficult target to make synthetically, analogs have been developed and tested in an attempt to localize the region of activity and improve that activity. Initially, simple analogs of Rottlerin itself, obtained from CalBioChem (La Jolla, Calif., Cat #557370), were prepared and analyzed. Two compounds gave important results, one representing a simplified methylene linkage present in the parent compound (PK103), and the other (PK203) came from a simple bromination of natural Rottlerin.

Sequence of PKCδ (Q05655 whole entry): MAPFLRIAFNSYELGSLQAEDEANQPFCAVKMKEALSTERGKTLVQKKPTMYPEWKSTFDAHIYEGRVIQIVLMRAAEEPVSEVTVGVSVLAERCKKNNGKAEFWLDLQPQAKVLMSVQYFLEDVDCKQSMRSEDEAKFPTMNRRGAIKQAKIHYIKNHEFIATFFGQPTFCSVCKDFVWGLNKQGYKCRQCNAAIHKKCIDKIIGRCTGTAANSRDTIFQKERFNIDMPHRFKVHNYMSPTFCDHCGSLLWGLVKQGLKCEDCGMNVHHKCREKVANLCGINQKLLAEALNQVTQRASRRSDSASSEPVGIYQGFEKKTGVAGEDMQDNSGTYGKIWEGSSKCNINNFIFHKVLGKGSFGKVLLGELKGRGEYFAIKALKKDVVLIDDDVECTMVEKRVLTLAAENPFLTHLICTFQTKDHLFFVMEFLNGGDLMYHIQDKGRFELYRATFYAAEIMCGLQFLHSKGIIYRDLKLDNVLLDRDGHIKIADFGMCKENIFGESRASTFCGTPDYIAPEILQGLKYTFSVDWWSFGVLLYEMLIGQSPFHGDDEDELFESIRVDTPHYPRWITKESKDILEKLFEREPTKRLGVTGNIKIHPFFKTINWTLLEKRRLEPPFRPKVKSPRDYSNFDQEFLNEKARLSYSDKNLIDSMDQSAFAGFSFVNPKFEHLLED

## COc1cc(OC)c(C(=O)/C=C/c2ccccc2)c2c1C=CC(C)(C)O2 [PK111]
PKCδ
  inhibition of PKCδ kinase activity: inhibited
[1]
  inhibition of MPP+-induced caspase-3 activity: almost completely inhibited
N27 cells
  toxicity of the analog at higher doses: toxic
N27 cells; MPP+ 24 hr
  neuroprotection compared with rottlerin: better neuroprotection than the parent compound rottlerin
N27 cells; MPP+ 24 hr, dose range 1-30 μM
  inhibition of MPP+-induced cytotoxic cell death: almost completely inhibited

## COc1cc2c(c3c1C=CC(C)(C)O3)C(=O)CC(c1ccccc1)O2 (stereo not drawn) [PK112]
PKCδ
  inhibition of PKCδ kinase activity: inhibited
[1]
  inhibition of MPP+-induced caspase-3 activity: almost completely inhibited
N27 cells
  toxicity of the analog at higher doses: toxic
N27 cells; MPP+ 24 hr
  neuroprotection compared with rottlerin: better neuroprotection than the parent compound rottlerin

## CC(=O)c1c(O)c(C)c(O)c(Cc2c(O)c3c(c(C(=O)/C=C/c4ccccc4)c2O)OC(C)(C)CC3)c1O [PK201]
[1]; 300 μM MPP+ 24 hr
  blockage of MPP+-induced caspase-3 activity: dose-dependent blockage
N27 cells; 300 μM MPP+ 24 hr
  blockage of MPP+-induced cytotoxicity: significant blockage

## CC(=O)c1c(O)c(C)c(O)c(Cc2c(O)c(C(=O)/C=C/c3ccccc3)c3c(c2O)C(Br)C(Br)C(C)(C)O3)c1O (stereo not drawn) [PK203]
[2]
  activity compared with Rottlerin: less activity than Rottlerin
[1]; 300 μM MPP+ 24 hr
  blockage of MPP+-induced caspase-3 activity: dose-dependent blockage
N27 cells; 300 μM MPP+ 24 hr
  blockage of MPP+-induced cytotoxicity: significant blockage

## CC(=O)c1c(O)cc(O)cc1O [PK303, acytyl phloroglucinol]
[1]; 300 μM MPP+ 24 hr, 0.3-10 μM
  relative protection against MPP+-induced caspase-3 activity within the generation: more effectively protect
[1]; 300 μM MPP+ 24 hr
  blockage of MPP+-induced caspase-3 activity: significant blockage
N27 cells; 300 μM MPP+ 24 hr
  relative potency against MPP+-induced cytotoxic cell death within the generation: more potent inhibitors than PK301
  blockage of MPP+-induced cytotoxicity: significant blockage
